Reference: PMC10945555, “Improving Activity of New Arylurea Agents against Multidrug-Resistant and Biofilm-Producing Staphylococcus epidermidis” (ACS Medicinal Chemistry Letters, 2024)
In brackets after ≈: the same amount, converted by molar mass.

Key:
BJ cells = test: Cytotoxicity, MTT assay, skin fibroblasts; type: cell-based, human
Description: The following cell models were used in the research: rat cardiomyocytes (H9c2 line) and human skin fibroblasts (BJ line). All cell lines used in the work are commercially available and were purchased from ATCC banks (the American Type Culture Collection, Manassas, VI, USA). Cell cultures were carried out in an incubator under standard conditions (37°C, 5% CO 2).
Culture media (Dulbecco's Modified Eagle's Medium -DMEM (H9c2) and Eagle's Minimum Essential Medium-EMEM (BJ) were supplemented with 10% bovine serum and a 1% mixture of penicillin and streptomycin antibiotics. […]
doxorubicin (a cytotoxic drug) were used as reference and positive control, respectively. […]
solution (5 mg/mL) was transferred into culture medium of incubated cells. After 3 h, once dark crystals of formazan were produced in cells, medium was aspirated and 100 μ L of DMSO was added to dissolve formazan. Absorbance of DMSO solution was read on a multiwell plate reader (Spectra Max iD3, Molecular Devices) at 570 nm. In order to determine viability, absorbance of experimental wells was divided by absorbance of contro l well (not treated) and multiplied by 100 (%). Three separate experiments were performed. IC 50 was calculated using non-linear regression method in OriginPro software. […]

[1] = test system: biofilm-producing Staphylococcus epidermidis strains; test: Inhibition of biofilm formation (MBIC, resazurin); type: cell-based
Description: After 24 hours incubation each well of
concentration of 4 mg/mL was added. […]

[2] = test system: biofilm-producing Staphylococcus epidermidis strains; test: Biofilm eradication (MBEC Assay Kit); type: cell-based
[3] = S. epidermidis ATCC 35984 (Table S4)

## O=C(Nc1cccc(Cl)c1)NC1CCN(CCC(Oc2ccc(C(F)(F)F)cc2)c2cccs2)CC1 (centres unmarked) [Compound 25]
BJ cells; 18 hours, sector F 25 µM, G 50 µM, tested 2.5-50 µM
  visible change in the appearance of the cells: visible in sector F and G
BJ cells; Homo sapiens, MTT, 24 h, n = 3
  IC50: 13.2 µg/mL (≈ 24.5 µM)
[1]; [3]
  MBIC: 7.8 µg/mL
[1]; Table S4 strains
  MBIC50: 15.6 µg/mL
  MBIC90: 31.25 µg/mL
[1]; clinical strain 1 (Table S4)
  MBIC: 15.6 µg/mL
[1]; clinical strain 2 (Table S4)
  MBIC: 31.25 µg/mL
[1]; clinical strain 3 (Table S4)
  MBIC: 31.25 µg/mL
[1]; clinical strain 4 (Table S4)
  MBIC: 31.25 µg/mL
[1]; clinical strain 5 (Table S4)
  MBIC: 15.6 µg/mL
[1]; clinical strain 6 (Table S4)
  MBIC: 15.6 µg/mL
[1]; clinical strain 8 (Table S4)
  MBIC: 3.9 µg/mL
[1]; clinical strain 9 (Table S4)
  MBIC: 31.25 µg/mL
[1]; clinical strain 11 (Table S4)
  MBIC: 31.25 µg/mL
[1]; clinical strain 12 (Table S4)
  MBIC: 31.25 µg/mL
[1]; clinical strain 13 (Table S4)
  MBIC: 1.6 µg/mL
[1]; clinical strain 15 (Table S4)
  MBIC: 31.25 µg/mL
[1]; clinical strain 16 (Table S4)
  MBIC: 15.6 µg/mL
[1]; clinical strain 17 (Table S4)
  MBIC: 15.6 µg/mL
[1]; clinical strain 19 (Table S4)
  MBIC: 15.6 µg/mL
[1]; clinical strain 21 (Table S4)
  MBIC: 31.25 µg/mL
[1]; clinical strain 22 (Table S4)
  MBIC: 31.25 µg/mL
[1]; clinical strain 23 (Table S4)
  MBIC: 3.9 µg/mL
[1]; clinical strain 25 (Table S4, Figure 2)
  MBIC: 7.8 µg/mL
[1]; clinical strain 26 (Table S4)
  MBIC: 31.25 µg/mL
[1]; clinical strain 27 (Table S4)
  MBIC: 31.25 µg/mL
[1]; clinical strain 28 (Table S4)
  MBIC: 15.6 µg/mL
[1]; clinical strain 29 (Table S4)
  MBIC: 15.6 µg/mL
[1]; clinical strain 30 (Table S4)
  MBIC: 1.6 µg/mL
[1]; clinical strain 33 (Table S4)
  MBIC: 31.25 µg/mL
[1]; clinical strain 35 (Table S4)
  MBIC: 31.25 µg/mL
[1]; clinical strain 36 (Table S4)
  MBIC: 15.6 µg/mL
[1]; clinical strain 37 (Table S4)
  MBIC: 31.25 µg/mL
[1]; clinical strain 39 (Table S4)
  MBIC: 1.6 µg/mL
[1]; clinical strain 40 (Table S4)
  MBIC: 15.6 µg/mL
[1]; clinical strain 41 (Table S4)
  MBIC: 31.25 µg/mL
[1]; clinical strain 42 (Table S4)
  MBIC: 31.25 µg/mL
[1]; clinical strain 43 (Table S4)
  MBIC: 15.6 µg/mL
[1]; clinical strain 44 (Table S4)
  MBIC: 15.6 µg/mL
[1]; clinical strain 45 (Table S4)
  MBIC: 31.25 µg/mL
[1]; clinical strain 46 (Table S4)
  MBIC: 31.25 µg/mL
[1]; clinical strain 47 (Table S4)
  MBIC: 15.6 µg/mL
[1]; clinical strain 49 (Table S4)
  MBIC: 15.6 µg/mL
[1]; clinical strain 51 (Table S4)
  MBIC: 31.25 µg/mL
[1]; clinical strain 55 (Table S4)
  MBIC: 31.25 µg/mL
[1]; clinical strain 58 (Table S4)
  MBIC: 31.25 µg/mL
[1]; clinical strain 59 (Table S4)
  MBIC: 31.25 µg/mL
[1]; clinical strain 65 (Table S4)
  MBIC: 31.25 µg/mL
[1]; clinical strain 66 (Table S4)
  MBIC: 15.6 µg/mL
[1]; clinical strain 67 (Table S4)
  MBIC: 31.25 µg/mL
[1]; clinical strain 70 (Table S4)
  MBIC: 31.25 µg/mL
[1]; clinical strain 73 (Table S4)
  MBIC: 7.8 µg/mL
[1]; clinical strain 74 (Table S4)
  MBIC: 15.6 µg/mL
[1]; clinical strain 75 (Table S4)
  MBIC: 15.6 µg/mL
[1]; clinical strain 78 (Table S4)
  MBIC: 7.8 µg/mL
[1]; clinical strain 79 (Table S4)
  MBIC: 7.8 µg/mL
[2]; [3]
  MBEC: 7.8 µg/mL
[2]; Table S4 strains
  MBEC50: 31.25 µg/mL
  MBEC90: 31.25 µg/mL
[2]; clinical strain 1 (Table S4)
  MBEC: 31.25 µg/mL
[2]; clinical strain 2 (Table S4)
  MBEC: 31.25 µg/mL
[2]; clinical strain 3 (Table S4)
  MBEC: 31.25 µg/mL
[2]; clinical strain 4 (Table S4)
  MBEC: 31.25 µg/mL
[2]; clinical strain 6 (Table S4)
  MBEC: 15.6 µg/mL
[2]; clinical strain 7 (Table S4)
  MBEC: 31.25 µg/mL
[2]; clinical strain 8 (Table S4)
  MBEC: 7.8 µg/mL
[2]; clinical strain 9 (Table S4)
  MBEC: 31.25 µg/mL
[2]; clinical strain 11 (Table S4)
  MBEC: 31.25 µg/mL
[2]; clinical strain 12 (Table S4)
  MBEC: 31.25 µg/mL
[2]; clinical strain 13 (Table S4)
  MBEC: 3.9 µg/mL
[2]; clinical strain 15 (Table S4)
  MBEC: 31.25 µg/mL
[2]; clinical strain 16 (Table S4)
  MBEC: 31.25 µg/mL
[2]; clinical strain 17 (Table S4)
  MBEC: 15.6 µg/mL
[2]; clinical strain 19 (Table S4)
  MBEC: 15.6 µg/mL
[2]; clinical strain 21 (Table S4)
  MBEC: 31.25 µg/mL
[2]; clinical strain 22 (Table S4)
  MBEC: 31.25 µg/mL
[2]; clinical strain 23 (Table S4)
  MBEC: 7.8 µg/mL
[2]; clinical strain 25 (Table S4)
  MBEC: 7.8 µg/mL
[2]; clinical strain 26 (Table S4)
  MBEC: 31.25 µg/mL
[2]; clinical strain 27 (Table S4)
  MBEC: 31.25 µg/mL
[2]; clinical strain 28 (Table S4)
  MBEC: 31.25 µg/mL
[2]; clinical strain 29 (Table S4)
  MBEC: 31.25 µg/mL
[2]; clinical strain 30 (Table S4)
  MBEC: 3.9 µg/mL
[2]; clinical strain 33 (Table S4)
  MBEC: 31.25 µg/mL
[2]; clinical strain 35 (Table S4)
  MBEC: 31.25 µg/mL
[2]; clinical strain 36 (Table S4)
  MBEC: 31.25 µg/mL
[2]; clinical strain 37 (Table S4)
  MBEC: 31.25 µg/mL
[2]; clinical strain 39 (Table S4)
  MBEC: 3.9 µg/mL
[2]; clinical strain 40 (Table S4)
  MBEC: 31.25 µg/mL
[2]; clinical strain 41 (Table S4)
  MBEC: 31.25 µg/mL
[2]; clinical strain 42 (Table S4)
  MBEC: 31.25 µg/mL
[2]; clinical strain 43 (Table S4)
  MBEC: 31.25 µg/mL
[2]; clinical strain 44 (Table S4)
  MBEC: 15.6 µg/mL
[2]; clinical strain 45 (Table S4)
  MBEC: 31.25 µg/mL
[2]; clinical strain 46 (Table S4)
  MBEC: 31.25 µg/mL
[2]; clinical strain 47 (Table S4)
  MBEC: 15.6 µg/mL
[2]; clinical strain 49 (Table S4)
  MBEC: 15.6 µg/mL
[2]; clinical strain 51 (Table S4)
  MBEC: 31.25 µg/mL
[2]; clinical strain 55 (Table S4)
  MBEC: 31.25 µg/mL
[2]; clinical strain 58 (Table S4)
  MBEC: 31.25 µg/mL
[2]; clinical strain 59 (Table S4)
  MBEC: 31.25 µg/mL
[2]; clinical strain 65 (Table S4)
  MBEC: 31.25 µg/mL
[2]; clinical strain 66 (Table S4)
  MBEC: 15.6 µg/mL
[2]; clinical strain 67 (Table S4)
  MBEC: 31.25 µg/mL
[2]; clinical strain 70 (Table S4)
  MBEC: 31.25 µg/mL
[2]; clinical strain 73 (Table S4)
  MBEC: 7.8 µg/mL
[2]; clinical strain 74 (Table S4)
  MBEC: 15.6 µg/mL
[2]; clinical strain 75 (Table S4)
  MBEC: 31.25 µg/mL
[2]; clinical strain 78 (Table S4)
  MBEC: 7.8 µg/mL
[2]; clinical strain 79 (Table S4)
  MBEC: 7.8 µg/mL
